Measured values taken from US20160213729A1, “FILIPENDULA VULGARIS EXTRACT AND USES THEREOF” (ABOCA S.P.A. SOCIETA' AGRICOLA, priority 2013, published 2016).

Experiments:
Assay type in all cases: cell-based, human
[1] = system: untransformed normal mesothelial cells (HMC); assay: Comet assay, HMC; conditions: single agent
Protocol: (§6) After the treatment, the cells were trypsinized and immersed in 1% low-melting agarose (Sigma) in PBS and spread onto microscope slides coated beforehand with 1% agarose (Bio-Rad). The cells were lysed in the lysis solution (2.5 M NaCl, 100 mM EDTA, 10 mM Tris base, 8 g/l NaOH, 1% Triton X-100, 10% DMSO) for 1 hour at room temperature and then run into the running solution (300 mM NaOH, 1 mM EDTA, pH 13.0) for 30 minutes, at 25 V and 250 mA. DNA was balanced with 0.4 M Tris, pH 8.0, and the slides dried with methanol. Propidium iodide-DNA (Sigma) and the figures images were taken by using an Axiovert 200M microscope with 40× magnification and an Axiovision (Zeiss) image acquisition software. At least 300 cells per each slide were recorded.

MSTO211H cells = assay: Comet assay, MSTO211H; conditions: single agent
Protocol: as §6

[2] = system: mesothelioma cell lines MPM MSTO211H; assay: Cell vitality (ATPlite) in co-treatment with pemetrexed, MSTO211H
Protocol: (§1) Cell lines MSTO211H and NCl-H2052 were used to evaluate the effects of the association of extract of Filipendula vulgaris±anti-tumour drug.
(§2) The assay shown in FIG. 10 was performed using ATPlite™ assay (Perkin Elmer) in accordance with the producer's instructions.
(§3) A solution of water for injectable solutions and ethanol at a concentration of 1:1 was used in the same volumes used for the treatments.
(§4) pemetrexed (Alimta, Lilly) diluted in accordance with the producer's instructions.
(§5) The concentrations of the assayed compound are plotted on the abscissa, whereas the cell vitality expressed in percentage is plotted on the ordinate.

[3] = system: mesothelioma cell lines MPM NCl-H2052; assay: Cell vitality (ATPlite) in co-treatment with pemetrexed, NCl-H2052
Protocol: as §1, §2, §3, §4, §5

mesothelial cells (HMC) = assay: Cell vitality (ATPlite) in co-treatment with pemetrexed, HMC; conditions: pemetrexed alone
Protocol: as §2, §3, §4, §5

N.N.[Cl][Pt][Cl] [CDDP, cis-diamminedichloroplatinum]
DNA damage / fragmentation [1]: induces DNA fragmentation
DNA damage / fragmentation (MSTO211H cells): induces DNA fragmentation

Nc1nc2[nH]cc(CCc3ccc(C(=O)N[C@@H](CCC(=O)O)C(=O)O)cc3)c2c(=O)[nH]1 [PMTX, pemetrexed]
concentration of pemetrexed sufficient to lower the cell vitality in double treatment ([2]; double treatment with extract 6 μg/ml): 10 µM
cell vitality, single agent ([2]; pemetrexed alone): cytotoxic for the MPM cells
concentration of pemetrexed sufficient to lower the cell vitality in double treatment ([3]; NCl-H2052, double treatment with extract 6 μg/ml): 10 µM
cell vitality, single agent ([3]; NCl-H2052, pemetrexed alone): cytotoxic for the MPM cells
toxicity for non-tumour cells, single agent (mesothelial cells (HMC)): highly toxic for the non-tumour cells
